Measurements taken from patent US20160009755A1, “CYRRHETINIC ALKYL ESTERS AND PROTECTED DERIVATIVES THEREOF” (priority 2013, published 2016).

Tested on: secreted IL-8 in normal human epidermal keratinocytes (NHEK)
Assay: IL-8 secretion in PMA-stimulated NHEK (anti-inflammatory test)
Format: cell-based
Procedure: In an exemplary test, NHEK were cultured in a medium for 24 hours. […] Then the culture medium was removed and replaced with another culture medium containing or not (control) the […] methyl ester or the reference compound and containing an inflammatory inducer (PMA) and the cells were incubated for 24 hours. A control without inducer was performed in parallel. After incubation, the culture supernatants were collected in order to measure the quantity of secreted IL-8.

## COC(=O)[C@@]1(C)CC[C@]2(C)CC[C@]3(C)C(=CC(=O)[C@@H]4[C@@]5(C)CC[C@H](O)C(C)(C)[C@@H]5CC[C@]43C)[C@@H]2C1 [Cyrrhetinic methyl ester, cyrrhetinic methyl ester]
15.625 μM
  % Stimulated Control: 42%
  Avg. IL-8: 1349 pg/mL
31.25 μM
  % Stimulated Control: 28%
  Avg. IL-8: 907 pg/mL
62.5 μM
  % Stimulated Control: 28%
  Avg. IL-8: 902 pg/mL
IL-8 secretion, 15.625 μM
  % Inhibition: 59%
IL-8 secretion, 31.25 μM
  % Inhibition: 73%
IL-8 secretion, 62.5 μM
  % Inhibition: 73%
Maximum over tested concentrations (up to)
  inhibition of IL-8 secretion: ≤ 73%

## CC1(C)[C@@H](O)CC[C@]2(C)[C@H]3C(=O)C=C4[C@@H]5C[C@@](C)(C(=O)O)CC[C@]5(C)CC[C@@]4(C)[C@]3(C)CC[C@@H]12 [Glycyrrhetinic acid, glycyrrhetinic acid]
0.5 μM
  % Stimulated Control: 95%
  Avg. IL-8: 3037 pg/mL
1 μM
  % Stimulated Control: 108%
  Avg. IL-8: 3470 pg/mL
2 μM
  % Stimulated Control: 139%
  Avg. IL-8: 4450 pg/mL
Homo sapiens, IL-8 secretion, 0.5 μM
  inhibition at 0.5 µM: 5%
Homo sapiens, IL-8 secretion, 1 μM
  inhibition at 1 µM: -9%
Homo sapiens, IL-8 secretion, 2 μM
  inhibition at 2 µM: -40%

## CN[C@@H]1C[C@H]2O[C@@](C)([C@@H]1OC)n1c3ccccc3c3c4c(c5c6ccccc6n2c5c31)C(=O)NC4 [Staurosporine, staurosporine]
10^−9M
  % Stimulated Control: 18%
  Avg. IL-8: 588 pg/mL
